Legend:
Assay in all cases: CTG-3D luminescence at 96 h relative to day-0 seeding control (ratio to day 0); higher = more growth / less cytotoxicity; PDxO 3D drug screen, 96 h, CTG-3D normalised to day-0 seeding control.
HCI-012 = tested on: HCI-012 (organoid from a breast cancer xenograft)
HCI-003.E2 = tested on: HCI-003.E2 (organoid from an ER-positive breast cancer xenograft)
HCI-001 = tested on: HCI-001 (organoid from a triple-negative breast cancer xenograft)
HCI-024 = tested on: HCI-024 (organoid from a breast cancer xenograft)
HCI-027 = tested on: HCI-027 (organoid from a triple-negative breast cancer xenograft)

CC1(C)CCC(c2ccc(Cl)cc2)=C(CN2CCN(c3ccc(C(=O)NS(=O)(=O)c4ccc(N[C@H](CCN5CCOCC5)CSc5ccccc5)c(S(=O)(=O)C(F)(F)F)c4)cc3)CC2)C1 [navitoclax]
CTG-3D luminescence at 96 h
Conditions	12.5 pM	0.00025 µM	0.005 µM	0.1 µM	1 µM	10 µM	100 µM	625 fM
HCI-001, days in culture: 240	1.51	1.07	0.955	1.53	1.1	0.369	0.0412	1.73
HCI-001, days in culture: 260	2.66	1.09	1.83	1.92	1.58	0.642	0.0822	1.64
HCI-001, days in culture: 269	1.8	1.73	1.37	1.38	0.942	0.889	0.124	1.67
HCI-001, days in culture: 327	2.11	1.59	2.17	1.48	0.963	0.0556	-0.168	2.04
HCI-001, days in culture: 346	1.64	1.22	1.38	1.24	1.3	0.577	0.00509	1.3
HCI-001, days in culture: 364	1.67	1.16	1.61	1.17	1.17	0.802	0.00601	1.63
HCI-012, days in culture: 143	1.69	2.26	2.2	2.7	2.07	2.21	0.239	1.81
HCI-012, days in culture: 162	2.02	2.3	2.33	2.56	2.17	2.21	0.134	2.94
HCI-012, days in culture: 201	3.09	2.12	1.75	1.93	2.2	0.271	-0.19	1.96
HCI-024, days in culture: 105	1.44	1.51	1.24	1.47	1.01	1.1	0.182	1.59
HCI-024, days in culture: 122	1.5	2.32	1.85	1.88	1.6	1.52	0.266	2.7
HCI-024, days in culture: 163	1.88	2.19	1.74	2.8	1.99	1.74	0.357	2.54
HCI-027, days in culture: 176	2.47	2.17	3.4	1.89	2.39	1.32	-0.194	3.28
HCI-027, days in culture: 194	2.18	1.78	2.01	2.17	2.24	1.75	0.198	2.27
HCI-027, days in culture: 201	3.21	2.62	3.27	3.18	2.73	1.5	0.0321	2.76

HCI-003.E2
Conditions	CTG-3D luminescence at 96 h
12.5 pM	1.98
0.00025 µM	2.09
0.005 µM	1.64
0.1 µM	2.22
1 µM	1.78
10 µM	1.12
100 µM	0.0236
625 fM	1.76

C/C=C1\NC(=O)[C@H]2CSSCC/C=C/[C@H](CC(=O)N[C@H](C(C)C)C(=O)N2)OC(=O)[C@H](C(C)C)NC1=O [romidepsin]
CTG-3D luminescence at 96 h
Conditions	12.5 pM	0.00025 µM	0.005 µM	0.1 µM	1 µM	10 µM	100 µM	625 fM
HCI-001, days in culture: 240	1.85	1.11	0.504	0.308	0.442	0.0301	-0.0763	1.57
HCI-001, days in culture: 260	2.41	0.948	1.41	0.615	0.865	0.141	-0.0313	1.64
HCI-001, days in culture: 269	1.82	1.72	0.783	0.423	0.38	0.00899	-0.0103	1.64
HCI-001, days in culture: 327	1.6	1.01	0.868	0.329	0.501	-0.124	-0.199	1.75
HCI-001, days in culture: 346	1.68	1.28	0.579	0.303	0.317	-0.107	-0.155	1.21
HCI-001, days in culture: 364	1.68	1.04	0.67	0.274	0.349	0.0111	-0.0729	1.63
HCI-012, days in culture: 143	2.11	2.61	0.686	0.0407	0.0227	0.0103	-0.00702	1.66
HCI-012, days in culture: 162	2.25	2.64	0.53	0.0384	0.0172	0.00772	-0.00766	2.87
HCI-012, days in culture: 201	2.24	0.795	0.629	-0.145	-0.118	-0.159	-0.214	1.98
HCI-024, days in culture: 105	1.55	1.48	0.453	0.311	0.111	0.00592	-0.00576	1.92
HCI-024, days in culture: 122	1.84	2.34	0.619	0.277	0.107	0.00509	-0.00823	1.91
HCI-024, days in culture: 163	1.76	1.96	0.576	0.334	0.124	0.00767	-0.00793	1.96
HCI-027, days in culture: 176	2.43	1.27	0.05	0.0166	0.376	-0.165	-0.237	2.12
HCI-027, days in culture: 194	2.63	1.95	0.739	0.437	0.349	-0.0181	-0.0853	2.17
HCI-027, days in culture: 201	3.22	2.72	1.35	0.611	0.234	0.136	-0.0194	3.25

HCI-003.E2
Conditions	CTG-3D luminescence at 96 h
12.5 pM	1.2
0.00025 µM	0.624
0.005 µM	0.21
0.1 µM	0.0473
1 µM	0.0243
10 µM	0.0035
100 µM	-0.00659
625 fM	0.719

— the supplement of paper PMC8882468
